Results: ChEMBL document CHEMBL1201862, “PubChem BioAssay data set” (2004)
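Cells were grown in 96-well plates and exposed to each compound for 48 hours at five concentrations; endpoints were interpolated linearly between bracketing concentrations, or set to the highest concentration if not reached. GI50 marks 50% less growth.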 Calls of active or inactive are those of the source. No stated cut-off is given here; in the data, active = GI50 up to about 1.1 µM and inactive = higher.

Experiments:
Assay in all cases: inhibition of tumour cell growth, NCI panel, 48 h
SF-295 = system: SF-295
CCRF-CEM = system: CCRF-CEM
HOP-62 = system: HOP-62
DMS-273 = system: DMS-273
M14 = system: M14
UACC-62 = system: UACC-62
UACC-257 = system: UACC-257
IGROV-1 = system: IGROV-1
KM12 = system: KM12
OVCAR-5 = system: OVCAR-5
SK-MEL-28 = system: SK-MEL-28
NCI-H226 = system: NCI-H226
COLO 205 = system: COLO 205
SR = system: SR
NCI-H522 = system: NCI-H522
NCI-H460 = system: NCI-H460
ACHN = system: ACHN
XF498 = system: XF498
EKVX = system: EKVX
CAKI-1 = system: CAKI-1
HCT-15 = system: HCT-15
DLD-1 = system: DLD-1
RPMI-8226 = system: RPMI-8226
SK-MEL-5 = system: SK-MEL-5
DMS-114 = system: DMS-114
OVCAR-3 = system: OVCAR-3
HCT-116 = system: HCT-116
SF-539 = system: SF-539
RXF 393 = system: RXF 393
OVCAR-4 = system: OVCAR-4
HOP-92 = system: HOP-92
KM-20L2 = system: KM-20L2
UO-31 = system: UO-31
Malme-3M = system: Malme-3M
SW-620 = system: SW-620
A549 = system: A549
HL-60 = system: HL-60
786-0 = system: 786-0
SK-MEL-2 = system: SK-MEL-2
TK-10 = system: TK-10
HT-29 = system: HT-29
LXFL 529 = system: LXFL 529
SNB-75 = system: SNB-75
HOP-18 = system: HOP-18
K562 = system: K562
SNB-19 = system: SNB-19
LOX IMVI = system: LOX IMVI
U-251 = system: U-251
MOLT-4 = system: MOLT-4
NCI-H23 = system: NCI-H23
HCC 2998 = system: HCC 2998
A498 = system: A498
OVCAR-8 = system: OVCAR-8
SF-268 = system: SF-268
SK-OV-3 = system: SK-OV-3
SN12C = system: SN12C

In the case of `O=C(/C=C(\O)C(=O)O)/C=C(\O)c1ccccc1Cl`, the GI50 (SF-295) is reported as > 100 µM (inactive), the GI50 (CCRF-CEM) is reported as > 100 µM (inactive) and the GI50 (HOP-62) is reported as > 100 µM (inactive). The GI50 (DMS-273) was > 100 µM (inactive), the GI50 (M14) was > 100 µM (inactive) and the GI50 (UACC-62) was > 100 µM (inactive). For the same molecule, the GI50 (UACC-257) was > 100 µM (inactive), the GI50 (IGROV-1) was > 100 µM (inactive) and the GI50 (KM12) was > 100 µM (inactive). The GI50 (OVCAR-5) was > 100 µM (inactive), the GI50 (SK-MEL-28) was > 100 µM (inactive) and the GI50 (NCI-H226) was > 100 µM (inactive). For the same molecule, the GI50 (COLO 205) was > 100 µM (inactive), the GI50 (SR) was > 100 µM (inactive) and the GI50 (NCI-H522) was > 100 µM (inactive). The GI50 (NCI-H460) was > 100 µM (inactive), the GI50 (ACHN) was > 100 µM (inactive) and the GI50 (XF498) was > 100 µM (inactive). The GI50 (EKVX) was > 100 µM (inactive), the GI50 (CAKI-1) was > 100 µM (inactive) and the GI50 (HCT-15) was greater than 100 µM. The GI50 (DLD-1) was > 100 µM (inactive), the GI50 (RPMI-8226) was > 100 µM (inactive) and the GI50 (SK-MEL-5) was > 100 µM (inactive). The GI50 (DMS-114) was > 100 µM (inactive), the GI50 (OVCAR-3) was > 100 µM (inactive) and the GI50 (HCT-116) was > 100 µM (inactive). The GI50 (SF-539) was > 100 µM (inactive), the GI50 (RXF 393) was > 100 µM (inactive) and the GI50 (OVCAR-4) was > 100 µM (inactive). The GI50 (HOP-92) was > 100 µM (inactive), the GI50 (KM-20L2) was > 100 µM (inactive) and the GI50 (UO-31) was > 100 µM (inactive). The GI50 (Malme-3M) was > 100 µM (inactive), the GI50 (SW-620) was > 100 µM (inactive) and the GI50 (A549) was > 100 µM (inactive). The GI50 (HL-60) was > 100 µM (inactive), the GI50 (786-0) was > 100 µM (inactive) and the GI50 (SK-MEL-2) was > 100 µM (inactive). For the same molecule, the GI50 (TK-10) was > 100 µM (inactive), the GI50 (HT-29) was > 100 µM (inactive) and the GI50 (LXFL 529) was > 100 µM (inactive). For the same molecule, the GI50 (SNB-75) was > 79.8 µM (inactive), the GI50 (HOP-18) was > 100 µM (inactive) and the GI50 (K562) was > 100 µM (inactive). For the same molecule, the GI50 (SNB-19) was > 100 µM (inactive), the GI50 (LOX IMVI) was > 100 µM (inactive) and the GI50 (U-251) was > 100 µM (inactive). The GI50 (MOLT-4) was > 100 µM (inactive), the GI50 (NCI-H23) was > 100 µM (inactive) and the GI50 (HCC 2998) was > 100 µM (inactive). For the same molecule, the GI50 (A498) was > 100 µM (inactive), the GI50 (OVCAR-8) was > 100 µM (inactive) and the GI50 (SF-268) was > 100 µM (inactive). For the same molecule, the GI50 (SK-OV-3) was > 100 µM (inactive) and the GI50 (SN12C) was > 100 µM (inactive).
